Assay results from ChEMBL document CHEMBL5352381, “Design and development of a novel series of oral bivalent BET inhibitors with potent anticancer activities” (Eur J Med Chem, 2022).

Legend:
[1] = test system: Ty-82; assay: Antiproliferative activity against human Ty-82 cells incubated for 72 hrs by sulforhodamine B based cell counting kit-8 assay; format: functional; details: TY82, 72 h
[2] = test system: MM1.S; assay: Antiproliferative activity against human MM1.S cells incubated for 72 hrs by sulforhodamine B based cell counting kit-8 assay; format: functional
[3] = target: Bromodomain-containing protein 4 (Homo sapiens, UniProt O60885); assay: Inhibition of full length BRD4 (unknown origin) transfected in HEK293 cells incubated for 20 hrs measured by NanoBRET BRD4/Histone H3.3 interaction assay kit; format: cell-based
[4] = Observed AUC infinity in CD-1 mouse at 10 mg/kg, po; format: ADME, organism-based; parameters: dose 10 mg/kg, route po; details: in vivo
[5] = Cmax in CD-1 mouse at 10 mg/kg, po; format: ADME, organism-based; parameters: dose 10 mg/kg, route po; details: in vivo
[6] = Tmax in CD-1 mouse at 10 mg/kg, po; format: ADME, organism-based; details: in vivo
[7] = Half life in CD-1 mouse at 10 mg/kg, po; format: ADME, organism-based; details: in vivo
[8] = Observed MRT infinity in CD-1 mouse at 10 mg/kg, po; format: ADME, organism-based; details: in vivo
[9] = AUClast in CD-1 mouse at 10 mg/kg, po; format: ADME, organism-based; parameters: dose 10 mg/kg, route po; details: in vivo
[10] = test system: Ty-82; assay: Antitumor activity against human Ty-82 cells xenografted in BALB/c nude mouse assessed tumor growth inhibition treated at 0.5 mg/kg, po qd for 21 days relative to control; format: functional; details: TY82, 504 h, time 21 day, read-out: TGI
[11] = Toxicity in BALB/c mouse xenografted with human Ty-82 assessed as death treated at 0.25 to 0.5 mg/kg, po qd for 21 days; format: organism-based; details: in vivo, 504 h, dose 0.25-0.5 mg/kg, time 21 day
[12] = Metabolic stability in dog liver microsomes assessed as clearance; format: ADME, Canis lupus familiaris, Microsome; details: read-out: CLH
[13] = Metabolic stability in human liver microsomes assessed as clearance; format: ADME, Microsome; details: read-out: CLH
[14] = Metabolic stability in dog liver microsomes assessed as half life; format: ADME, Canis lupus familiaris, Microsome
[15] = Metabolic stability in mouse liver microsomes assessed as half life; format: ADME, Microsome
[16] = Metabolic stability in mouse liver microsomes assessed as clearance; format: ADME, Microsome; details: read-out: CLH
[17] = Toxicity in BALB/c mouse xenografted with human Ty-82 assessed as body weight loss treated at 0.25 to 0.5 mg/kg, po qd for 21 days; format: organism-based; details: in vivo, 504 h, dose 0.25-0.5 mg/kg, time 21 day
[18] = Metabolic stability in human liver microsomes assessed as half life; format: ADME, Microsome
[19] = test system: MV4-11; assay: Antiproliferative activity against human MV4-11 cells; format: functional, cell-based

Row | SMILES | IC50 [1] [nM] | IC50 [2] [nM] | AUC(0-inf) [4] [ng·h/mL] | Cmax [5] [ng/mL] | Tmax [6] [h] | half-life [7] [h] | MRT [8] [h] | AUC(0-t) [9] [ng·h/mL] | other results
1 | Cc1ccc(-n2nc(C(=O)N3CCC4(CCN(C(=O)c5nc(-c6ccc7c(c6)N(C6CCCC6)[C@H](C)C(=O)N7C)n(-c6ccc(C)cc6)n5)C4)C3)nc2-c2ccc3c(c2)N(C2CCCC2)[C@H](C)C(=O)N3C)cc1 | 2.5 | 0.74 |  |  |  |  |  |  | 
2 | Cc1ccc(-n2nc(C(=O)N3CCN(C(=O)c4nc(-c5ccc6c(c5)N(C5CCCC5)[C@H](C)C(=O)N6C)n(-c5ccc(C)cc5)n4)CC3)nc2-c2ccc3c(c2)N(C2CCCC2)[C@H](C)C(=O)N3C)cc1 |  |  | 372 | 238 | 1 | 0.82 | 1.69 | 361 | IC50 [3]: 6.2 nM
3 | Cc1ccc(-n2nc(C(=O)N3C[C@H](C)N(C(=O)c4nc(-c5ccc6c(c5)N(C5CCC5)[C@H](C)C(=O)N6C)n(-c5ccc(C)cc5)n4)C[C@H]3C)nc2-c2ccc3c(c2)N(C2CCC2)[C@H](C)C(=O)N3C)cc1 | 0.05 | 0.04 |  |  |  |  |  |  | inhibition in vivo at 0.5 mg/kg [10]: 61%; Activity [11]: Non-Toxic; microsomal CLint [12]: 0.7 µL/min/mg; microsomal CLint [13]: 0.5 µL/min/mg; half-life [14]: 34.7 h; half-life [15]: 9.48 h; microsomal CLint [16]: 2.4 µL/min/mg; Activity [17]: Toxic; half-life [18]: 48.7 h
4 | Cc1ccc(-n2nc(C(=O)N3C[C@H](C)N(C(=O)c4nc(-c5ccc6c(c5)N(C5CCCC5)[C@H](C)C(=O)N6C)n(-c5ccc(C)cc5C)n4)C[C@H]3C)nc2-c2ccc3c(c2)N(C2CCCC2)[C@H](C)C(=O)N3C)c(C)c1 | 0.75 | 0.29 |  |  |  |  |  |  | 
5 | Cc1sc2c(c1C)C(c1ccc(Cl)cc1)=NC(CC(=O)OC(C)(C)C)c1nnc(C)n1-2 (stereo unspecified) |  |  |  |  |  |  |  |  | IC50 [19]: 72.2 nM
6 | Cc1ccc(-n2nc(C(=O)N3CCNCC3)nc2-c2ccc3c(c2)N(C2CCCC2)[C@@H](C)C(=O)N3C)cc1 | > 20000 | > 20000 |  |  |  |  |  |  | IC50 [3]: 1730 nM
7 | C[C@@H]1C(=O)N(C)c2ccc(-c3nc(C(=O)N4CCN(C(=O)c5nc(-c6ccc7c(c6)N(C6CCCC6)[C@H](C)C(=O)N7C)n(-c6ccc7ccccc7c6)n5)CC4)nn3-c3ccc4ccccc4c3)cc2N1C1CCCC1 | 0.6 | 0.51 |  |  |  |  |  |  | 
8 | Cc1sc2c(c1C)C(c1ccc(Cl)cc1)=N[C@@H](CC(=O)NCCOCCOCCOCCOCCOCCOCCOCCNC(=O)C[C@@H]1N=C(c3ccc(Cl)cc3)c3c(sc(C)c3C)-n3c(C)nnc31)c1nnc(C)n1-2 |  |  |  |  |  |  |  |  | IC50 [19]: 0.17 nM
9 | Cc1ccc(-n2nc(C(=O)NCCCNC(=O)c3nc(-c4ccc5c(c4)N(C4CCCC4)[C@H](C)C(=O)N5C)n(-c4ccc(C)cc4)n3)nc2-c2ccc3c(c2)N(C2CCCC2)[C@H](C)C(=O)N3C)cc1 |  |  | 75.8 | 58.1 | 0.58 | 0.74 | 1.75 | 71.5 | 
10 | Cc1ccc(-n2nc(C(=O)N(C)CCN(C)C(=O)c3nc(-c4ccc5c(c4)N(C4CCCC4)[C@H](C)C(=O)N5C)n(-c4ccc(C)cc4)n3)nc2-c2ccc3c(c2)N(C2CCCC2)[C@H](C)C(=O)N3C)cc1 |  |  | 129 | 264 | 0.25 | 0.49 | 1.07 | 124 | 
